Patent US11155567B2, “Sting agonist compounds and methods of use” (Mersana Therapeutics, Inc., priority 2019, dated 2021)

Columns and labels:
Type in all cases: cell-based
[1] = target: T1, R232H human STING variant (Homo sapiens, UniProt Q86WV6); test: IRF3 reporter induction in THP1-Dual KI-hSTING-H232 Cells; conditions: THP1-Dual KI-hSTING-H232 Cells (R232H Haplotype)
T1 construct: host or cells: THP1-Dual KI-hSTING-H232 cells, generated from THP1-Dual KO-STING cells
Description: (§1) THP1-Dual™ Human Monocytes cells with the homozygous HAQ allele, known to be a natural variant allele of STING occurring in 20% of the human population (Invivogen) have been engineered with two independent gene reporter systems: a secreted embryonic alkaline phosphatase (SEAP) reporter gene for NFkB activity, and secreted luciferase reporter for […] (IRF3) activity were used. 4×10^5 THP1-Dual™ cells were incubated with test Compounds in a 5-fold titration steps from 1 to 0.0128 μM in RPMI media with 10% FBS, for 24 hours at 37° C. with 5% CO2. Cell culture supernatants (20 μl) from each incubated sample was added to resuspended QUANTI-Blue™ Solution (Invivogen, 180 μl) in each well of a flat-bottom 96-well plate, then incubated for 2 h. NFkB levels were evaluated using a spectrophotometer at 620-655 nm.
(§2) To evaluate IRF3 reporter levels, cell culture supernatant (20 μl) from each incubated sample was added to QUANTI-Luc™ assay solution (Invivogen, 50 μl), and the luminescence was measured with a SpectraMax M3 spectrophotometer (Molecular Devices).
(§3) NFkB and IRF3 reporter levels were also determined for THP1-Dual™ KI-hSTING-H232 Cells and THP1-Dual™ KI-hSTING-R232 Cells. THP1-Dual™ KI-hSTING-H232 Cells (R232H Haplotype) were generated from THP1-Dual™ KO-STING cells by knockin of the intronless coding sequence (from the ATG to TGA) of the R232H human STING variant (Invivogen). R232H has been identified as a natural variant allele of STING occurring in ˜14% of the human population. THP1-Dual™ KI-hSTING-R232 Cells (R232 Haplotype) were generated from THP1-Dual™ KO-STING cells by knockin of the intronless coding sequence (from the ATG to the TGA) of the R232 hSTING variant. Genomic studies indicate that this variant, which contains an arginine at position 232 (R232), is the most prevalent variant with an occurrence (homozygous allele) of ˜45-58% in the human population.
(§4) The EC50 value was determined from the dose response curve based on reference Compounds. Table 2a provides the results for IRF3 reporter induction THP1-Dual™ Human Monocytes cells and Table 2b provides the results for IRF3 reporter induction in THP1-Dual™ KI-hSTING-H232 Cells and THP1-Dual™ KI-hSTING-R232 Cells (“A” means <30 nM; “B” means ≥30 nM and <100 nM; “C” means ≥100 nM).

Human STING (HAQ allele) = target: T2, Human STING (HAQ allele) (Homo sapiens, UniProt Q86WV6, G230A/H232R/R293Q/R71H); test: IRF3 reporter induction in THP1-Dual Human Monocytes cells (homozygous HAQ STING allele); conditions: IRF3 reporter (secreted luciferase), 24 hours incubation
T2 construct: THP1-Dual™ Human Monocytes cells with the homozygous HAQ allele; host or cells: THP1-Dual human monocytes
Description: as §1, §2, §4

R232 hSTING variant = target: T3, R232 hSTING variant (Homo sapiens, UniProt Q86WV6, H232R); test: IRF3 reporter induction in THP1-Dual KI-hSTING-R232 Cells; conditions: THP1-Dual KI-hSTING-R232 Cells (R232 Haplotype)
T3 construct: expressed in transfected cells; host or cells: THP1-Dual KI-hSTING-R232 cells, generated from THP1-Dual KO-STING cells
Description: as §1, §2, §3, §4

Human STING = target: T4, Human STING (Homo sapiens, UniProt Q86WV6, G230A/H232R/R293Q/R71H); test: Activation of human STING signaling in permeabilized THP1 cells, IRF3 induction; conditions: THP1-Dual cells permeabilized with digitonin buffer 30 minutes on ice, then 24 h in RPMI media
T4 construct: host or cells: THP1-Dual cells, digitonin-permeabilized
Description: as §2
4×10^5 THP1-Dual™ cells (NF-κB-SEAP and IRF-Lucia luciferase Reporter Monocytes, Invivogen) were incubated with test Compounds in a 5-fold titration steps from […] in permeabilized buffer (50 mM HEPES pH 7.0, 100 mM KCl, 3 mM MgCl2, 85 mM sucrose, 0.2% BSA, 1 mM ATP, 0.1 mM GTP, 0.1 mM TTP, 1 μg/ml digitonin) for 30 minutes on ice. Cells were then washed and incubated in a fresh RPMI media with 10% FBS at 37° C. with 5% CO2 for 24 h. Cell culture supernatants from each sample were collected and NFkB and IRF3 were evaluated as above. Table 3 provides the results for IRF3 induction (“A” means <1 μM; “B” means ≥1 μM and <50 μM; “C” means ≥50 μM).

T4 sequence (Q86WV6 whole entry R71H/G230A/H232R/R293Q): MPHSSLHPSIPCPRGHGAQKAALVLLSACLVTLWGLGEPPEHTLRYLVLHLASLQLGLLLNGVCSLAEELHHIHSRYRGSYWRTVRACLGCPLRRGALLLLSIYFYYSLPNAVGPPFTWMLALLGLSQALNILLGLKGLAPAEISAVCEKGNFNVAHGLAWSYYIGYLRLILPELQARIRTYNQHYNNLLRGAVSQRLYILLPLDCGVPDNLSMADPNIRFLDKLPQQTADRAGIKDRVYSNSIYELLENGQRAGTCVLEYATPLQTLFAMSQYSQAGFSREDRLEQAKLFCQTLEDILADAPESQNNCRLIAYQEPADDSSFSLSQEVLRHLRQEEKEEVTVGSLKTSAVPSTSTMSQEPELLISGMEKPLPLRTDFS
T2 sequence (Q86WV6 whole entry R71H/G230A/H232R/R293Q): as above
T1 sequence (Q86WV6 whole entry, stated change not applied): as the sequence (Q86WV6 whole entry R71H/G230A/H232R/R293Q) above, with H71R, A230G, R232H, Q293R counted along it
T3 sequence (Q86WV6 whole entry H232R): as the sequence (Q86WV6 whole entry R71H/G230A/H232R/R293Q) above, with H71R, A230G, Q293R counted along it

Compound	EC50 [1] [µM]	EC50 (Human STING (HAQ allele)) [µM]	EC50 (R232 hSTING variant) [µM]	EC50 (Human STING) [µM]
CCc1nc(C)oc1C(=O)Nc1nc2cc(C(N)=O)cnc2n1C/C=C/Cn1c(NC(=O)c2oc(C)nc2CC)nc2cc(C(N)=O)cc(OCCCO)c21 [compound 95]	< 0.03	0.03 to 0.1	< 0.03	< 1
CCc1nc(C)oc1C(=O)/N=c1\sc2cc(C(N)=O)cc(OCCCO)c2n1C/C=C/Cn1c(NC(=O)c2cc(C)nn2CC)nc2cc(C(N)=O)cnc21 [compound 148]	< 0.03	≥ 0.1	< 0.03	< 1
CCc1nc(C)oc1C(=O)/N=c1\sc2cc(C(N)=O)cc(OC)c2n1C/C=C/Cn1c(NC(=O)c2oc(C)nc2CC)nc2cc(C(N)=O)cc(OCCCO)c21 [compound 63]	< 0.03	≥ 0.1	< 0.03	< 1
CCc1nc(C)oc1C(=O)Nc1nc2cc(C(N)=O)cc(OC)c2n1C/C=C/Cn1c(NC(=O)c2oc(C)nc2CC)nc2cc(C(N)=O)cc(OCCCO)c21 [compound 9]	< 0.03	0.03 to 0.1	< 0.03	< 1
CCc1nc(C)oc1C(=O)/N=c1\sc2cc(C(N)=O)cnc2n1C/C=C/Cn1c(NC(=O)c2oc(C)nc2CC)nc2cc(C(N)=O)cc(OCCCO)c21 [compound 109]	< 0.03	0.03 to 0.1	< 0.03	< 1
CCc1nc(C)oc1C(=O)/N=c1\sc2cc(C(N)=O)cc(OC)c2n1C/C=C/Cn1c(NC(=O)c2oc(C)nc2CC)nc2cc(C(N)=O)cc(OCCCC(=O)O)c21 [compound 66]	≥ 0.1	≥ 0.1	< 0.03	< 1
